Assay results published in patent US20090325952A1, “PYRAZOLO[3,4-B]PYRIDINE COMPOUNDS, AND THEIR USE AS PDE4 INHIBITORS” (Glaxo Group Limited, priority 2006, published 2009).
Counter-ions that a name gives are not always drawn.

target: T1, PDE4B (human recombinant) (Homo sapiens, UniProt Q07343); assay: Inhibition of PDE4B activity (FP and/or SPA assay); format: biochemical; details: generally FP assay; one reading or average of n readings; read-out: PDE4B pIC50 (generally in FP assay) (±about 0.5) (converted)
T1 construct: made in house; host or cells: Saccharomyces cerevisiae strain GL62 (PDE-deficient yeast)
Excerpt: Human recombinant PDE4B, in particular the 2B splice variant thereof (HSPDE4B2B), is disclosed in WO 94/20079 and also M. M. McLaughlin et al., “A low Km, rolipram-sensitive, cAMP-specific phosphodiesterase from human brain: cloning and expression of cDNA, biochemical characterisation of recombinant protein, and tissue distribution of mRNA”, J. Biol. Chem., 1993, 268, 6470-6476. For example, in Example 1 of WO 94/20079, human recombinant PDE4B is described as being expressed in the PDE-deficient yeast Saccharomyces cerevisiae strain GL62, e.g. after induction by addition of 150 uM CuSO4, and 100,000×g supernatant fractions of yeast cell lysates are described for use in the harvesting of PDE4B enzyme.
The ability of compounds to inhibit catalytic activity at PDE4B or 4D (human recombinant), PDE3 (from bovine aorta), PDE5 (human recombinant) or PDE6 (from bovine retina) can optionally be determined by Scintillation Proximity Assay (SPA) in a 96-well format.
Test compounds (as a solution in DMSO, suitably about 2 microlitre (ul) volume of DMSO solution) are preincubated at ambient temperature (room temperature, e.g. 19-23° C.) in Wallac Isoplates (code 1450-514) with PDE enzyme in 50 mM Tris-HCl buffer pH 7.5, 8.3 mM MgCl2, 1.7 mM EGTA, 0.05% (w/v) bovine serum albumin for 10-30 minutes (usually 30 minutes). The enzyme concentration is adjusted so that no more than 20% hydrolysis of the substrate defined below occurs in control wells without compound, during the incubation. For the PDE3, PDE4B and PDE4D assays, [5′,8-^3H]Adenosine 3′,5′-cyclic phosphate (Amersham Pharmacia Biotech, code TRK.559; or Amersham Biosciences UK Ltd, Pollards Wood, Chalfont St Giles, Buckinghamshire HP8 4SP, UK) is added to give 0.05uCi per well and about 10 nM final concentration. For the PDE5 and PDE6 assays, [8^−3H]Guanosine 3′,5′-cyclic phosphate (Amersham Pharmacia Biotech, code TRK.392) is added to give 0.05uCi per well and about 36 nM final concentration. Plates containing assay mixture, suitably approx. 100 ul volume of assay mixture, are mixed on an orbital shaker for 5 minutes and incubated at ambient temperature for 1 hour. Phosphodiesterase SPA beads (Amersham Pharmacia Biotech, code RPNQ 0150) are added (about 1 mg per well) to terminate the assay. Plates are sealed and shaken and allowed to stand at ambient temperature for 35 minutes to 1 hour (suitably 35 minutes) to allow the beads to settle. Bound radioactive product is measured using a WALLAC TRILUX 1450 Microbeta scintillation counter. For inhibition curves, 10 concentrations (e.g. 1.5 nM-30 uM) of each compound are assayed. Curves are analysed using ActivityBase and XLfit (ID Business Solutions Limited, 2 Ocean Court, Surrey Research Park, Guildford, Surrey GU2 7QB, United Kingdom) Results are expressed as pIC50 values.
The ability of compounds to inhibit catalytic activity at PDE4B (human recombinant) or PDE4D (human recombinant) can optionally be determined by IMAP Fluorescence Polarisation (FP) assay (IMAP Explorer kit, available from Molecular Devices Corporation, Sunnydale, Calif., USA; Molecular Devices code: R8062) in 384-well format.
The IMAP FP assay is able to measure PDE activity in an homogenous, non-radioactive assay format. The FP assay uses the ability of immobilised trivalent metal cations, coated onto nanoparticles (tiny beads), to bind the phosphate group of Fl-AMP that is produced on the hydrolysis of fluorescein-labelled (Fl) cyclic adenosine mono-phosphate (Fl-cAMP) to the non-cyclic Fl-AMP form. […] Binding of Fl-AMP product to the beads (coated with the immobilised trivalent cations) slows the rotation of the bound Fl-AMP and leads to an increase in the fluorescence polarisation ratio of parallel to perpendicular light. Inhibition of the PDE reduces/inhibits this signal increase. […]

T1 sequence (Q07343 1-564 isoform Q07343-2): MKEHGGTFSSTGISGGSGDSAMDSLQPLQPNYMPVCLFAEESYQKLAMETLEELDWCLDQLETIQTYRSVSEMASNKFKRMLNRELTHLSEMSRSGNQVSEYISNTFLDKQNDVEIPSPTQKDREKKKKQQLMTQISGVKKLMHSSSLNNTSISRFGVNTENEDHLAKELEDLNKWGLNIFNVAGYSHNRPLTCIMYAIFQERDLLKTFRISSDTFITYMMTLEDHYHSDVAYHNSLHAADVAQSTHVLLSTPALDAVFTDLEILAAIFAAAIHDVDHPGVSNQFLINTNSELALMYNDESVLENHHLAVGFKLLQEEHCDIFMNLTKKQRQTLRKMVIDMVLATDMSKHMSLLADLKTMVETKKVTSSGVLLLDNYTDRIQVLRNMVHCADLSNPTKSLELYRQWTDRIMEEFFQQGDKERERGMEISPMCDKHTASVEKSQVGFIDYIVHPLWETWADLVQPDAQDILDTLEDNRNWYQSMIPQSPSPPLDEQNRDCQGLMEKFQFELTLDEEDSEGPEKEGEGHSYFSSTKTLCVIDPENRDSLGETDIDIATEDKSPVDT

| SMILES | IC50 |
| --- | --- |
| CCc1nc2c(cnn2CC)c(NC2CCOCC2)c1CNC(=O)c1ccc(NC(=O)CCCCCCCN2CCC[C@@H]2COC)cc1 [Example 11, N-{[1,6-diethyl-4-(tetrahydro-2H-pyran-4-ylamino)-1H-pyrazolo[3,4-b]pyridin-5-yl]methyl}-4-[(8-{(2R)-2-[(methyloxy)methyl]-1-pyrrolidinyl}octanoyl)amino]benzamide trifluoroacetate] | ~0.0501 nM |
| CCc1nc2c(cnn2CC)c(NC2CCOCC2)c1CNC(=O)c1ccc(CCCCOCCCCN2CCOCC2)cc1 [Example 20, formate salt of N-{[1,6-diethyl-4-(tetrahydro-2H-pyran-4-ylamino)-1H-pyrazolo[3,4-b]pyridin-5-yl]methyl}-4-(4-{[4-(4-morpholinyl)butyl]oxy}butyl)benzamide] | ~0.1 nM |
| CCc1nc2c(cnn2CC)c(NC2CCOCC2)c1CNC(=O)c1ccc(CCCCOCCCCN2CCCC2)cc1 [Example 21, formate salt of N-{[1,6-diethyl-4-(tetrahydro-2H-pyran-4-ylamino)-1H-pyrazolo[3,4-b]pyridin-5-yl]methyl}-4-(4-{[4-(1-pyrrolidinyl)butyl]oxy}butyl)benzamide] | ~0.0631 nM |

Further lines, results first:

| IC50 | SMILES |
| --- | --- |
| ~0.0501 nM | CCc1nc2c(cnn2CC)c(NC2CCOCC2)c1CNC(=O)c1ccc(NC(=O)CCCCCCCN(C)CCO)cc1 [Example 1C, N-{[1,6-diethyl-4-(tetrahydro-2H-pyran-4-ylamino)-1H-pyrazolo[3,4-b]pyridin-5-yl]methyl}-4-({8-[(2-hydroxyethyl)(methyl)amino]octanoyl}amino)benzamide] |
| ~0.0316 nM | CCc1nc2c(cnn2CC)c(NC2CCOCC2)c1CNC(=O)c1ccc(NC(=O)CCCCCCCN2CCC[C@H]2COC)cc1 [Example 12, N-{[1,6-diethyl-4-(tetrahydro-2H-pyran-4-ylamino)-1H-pyrazolo[3,4-b]pyridin-5-yl]methyl}-4-[(8-{(2S)-2-[(methyloxy)methyl]-1-pyrrolidinyl}octanoyl)amino]benzamide trifluoroacetate] |
| ~0.158 nM | CCc1nc2c(cnn2CC)c(NC2CCOCC2)c1CNC(=O)c1ccc(NC(=O)CCCCCCCN2CCOCC2)cc1 [Example 17, formate salt of N-{[1,6-diethyl-4-(tetrahydro-2H-pyran-4-ylamino)-1H-pyrazolo[3,4-b]pyridin-5-yl]methyl}-4-{[8-(4-morpholinyl)octanoyl]amino}benzamide] |
| ~0.0794 nM | CCc1nc2c(cnn2CC)c(NC2CCOCC2)c1CNC(=O)c1ccc(NC(=O)CCCCCN(C)CCO)cc1 [Example 31, N-{[1,6-diethyl-4-(tetrahydro-2H-pyran-4-ylamino)-1H-pyrazolo[3,4-b]pyridin-5-yl]methyl}-4-({6-[(2-hydroxyethyl)(methyl)amino]hexanoyl}amino)benzamide] |
| ~1 nM | CCc1nc2c(cnn2CC)c(NC2CCOCC2)c1CNC(=O)c1ccc(NC(=O)CCCCCCCCCCN(C)CCO)cc1 [Example 34, N-{[1,6-diethyl-4-(tetrahydro-2H-pyran-4-ylamino)-1H-pyrazolo[3,4-b]pyridin-5-yl]methyl}-4-({11-[(2-hydroxyethyl)(methyl)amino]undecanoyl}amino)benzamide] |

tested on: LPS-induced pulmonary neutrophilia in rats; assay: In Vivo Assay 1: LPS induced pulmonary neutrophilia in rats, intratracheal administration; design: species or system rat; details: after i.t. administration to the rat as a dry powder; preliminary tests
Excerpt: This assay is an animal model of acute inflammation in the lung—specifically neutrophilia induced by lipopolysaccharide (LPS)—and allows the study of putative inhibition of such neutrophilia (anti-inflammatory effect) by an intratracheally (i.t.) administered PDE4 inhibitor (“drug”). The PDE4 inhibitors are suitably in dry powder, aqueous solution or aqueous suspension form. I.t. administration is one model of inhaled administration, allowing topical delivery to the lung.
Animals: Male CD (Sprague Dawley Derived) rats supplied by Charles River, United Kingdom are housed in groups of 5 rats per cage, acclimatised after delivery for at least 7 days with bedding/nesting material regularly changed, fed on SDS diet R1 pelleted food given ad lib, and supplied with daily-changed pasteurised animal grade drinking water.
Device for dry powder administration: For these studies, a Penn Century DP-4 dry powder intratracheal (i.t.) delivery device (insufflator) is used for administration of a dry powder blend of vehicle (inhalation grade lactose) and the PDE4 inhibitor compound or salt of the invention (“drug”). Each device is numbered and the sample loading chamber is unscrewed from the main device and weighed. The i.t. delivery needle is also weighed. The drug+lactose blend or inhalation grade lactose (vehicle control) is then added to the sample chamber and this is then re-weighed. The sample chamber is fitted back on to the main device to prevent any drug being lost. This procedure is repeated for all of the Penn century devices to be used in the study (one separate device for each animal). After dosing to the animals, the sample chambers and needles are re-weighed in order to determine the amount of sample that was expelled from the device.
Device for aqueous solution administration: A blunt dosing needle, whose forward end is slightly angled to the needle axis, is used, with a flexible plastic portex canula inserted into the needle. The portex cannula is inserted into the lumen of the blunt stainless steel dosing needle and this is carefully inserted into the back of the animal's throat and into the trachea via the larynx. A known volume (200 microlitres) of the vehicle (0.2% Tween 80™ in saline) or of the solution (or suspension) drug composition is administered into the trachea using a plastic syringe that is attached to the portex cannula and dosing needle. A new internal cannula is used for each different drug group. After dosing, the needle is removed from the trachea and the animals are removed from the table and continually observed until they recover from the effects of anaesthesia. The animals are then returned to the holding cages and given free access to food and water, and are observed and any unusual behavioural changes noted. (Aqueous suspensions can be handled generally similarly.)
Drugs and Materials: Lipopolysaccharide (LPS) (Serotype:0127:B8, e.g. from Sigma, UK; e.g. L3129 prepared by phenol extraction) is dissolved in phosphate-buffered saline (PBS).
For dry powder, aqueous solution or aqueous suspension administration, PDE4 inhibitors are preferably used in size-reduced (e.g. micronised) form, for example according to the Micronisation Example(s) disclosed herein.
For dry powder administration of the drug, the PDE4 inhibitor compound or salt of the invention (drug) is administered as a dry powder blended with inhalation-grade (respiratory-grade) lactose, i.e. as a dry powder composition. The target quantity of dry powder composition administered i.t. to each animal is 2 mg. This remains constant throughout the studies. To achieve different doses, blends of the drug dry powder and lactose, containing different concentrations of the PDE4 inhibitor compound or salt of the invention (drug), are prepared. […]

| SMILES | duration of action in i.t. rat LPS-induced neutrophilia model |
| --- | --- |
| CCc1nc2c(cnn2CC)c(NC2CCOCC2)c1CNC(=O)c1ccc(NC(=O)CCCCCCCN(C)CCO)cc1 [N-{[1,6-diethyl-4-(tetrahydro-2H-pyran-4-ylamino)-1H-pyrazolo[3,4-b]pyridin-5-yl]methyl}-4-({8-[(2-hydroxyethyl)(methyl)amino]octanoyl}amino)benzamide] | 4 h |

same assay, conditions: after i.t. administration to the rat as an aqueous solution; preliminary tests

| SMILES | duration of action in i.t. rat LPS-induced neutrophilia model |
| --- | --- |
| CCc1nc2c(cnn2CC)c(NC2CCOCC2)c1CNC(=O)c1ccc(NC(=O)CCCCCCCN(C)CCO)cc1 [N-{[1,6-diethyl-4-(tetrahydro-2H-pyran-4-ylamino)-1H-pyrazolo[3,4-b]pyridin-5-yl]methyl}-4-({8-[(2-hydroxyethyl)(methyl)amino]octanoyl}amino)benzamide] | ≥ 2 h |
